Measured values from patent US11613533B2, “Compounds useful for inhibiting RET kinase” (Eli Lilly and Company, priority 2020, dated 2023).

Experiments:
[1] = molecular target: T1, wildtype RET kinase (N-terminal GST tagged recombinant human RET cytoplasmic domain, aa 658-end) (Homo sapiens, UniProt P07949); assay: RET enzyme assay (HTRF KinEASE TK), wildtype; assay type: biochemical; conditions: 1 mM ATP, 60 min incubation at 22° C.
T1 construct: human RET cytoplasmic domain (aa 658-end); GST (N); purchased Eurofins 14-570M
T1 sequence (P07949 658-1114 limits assumed): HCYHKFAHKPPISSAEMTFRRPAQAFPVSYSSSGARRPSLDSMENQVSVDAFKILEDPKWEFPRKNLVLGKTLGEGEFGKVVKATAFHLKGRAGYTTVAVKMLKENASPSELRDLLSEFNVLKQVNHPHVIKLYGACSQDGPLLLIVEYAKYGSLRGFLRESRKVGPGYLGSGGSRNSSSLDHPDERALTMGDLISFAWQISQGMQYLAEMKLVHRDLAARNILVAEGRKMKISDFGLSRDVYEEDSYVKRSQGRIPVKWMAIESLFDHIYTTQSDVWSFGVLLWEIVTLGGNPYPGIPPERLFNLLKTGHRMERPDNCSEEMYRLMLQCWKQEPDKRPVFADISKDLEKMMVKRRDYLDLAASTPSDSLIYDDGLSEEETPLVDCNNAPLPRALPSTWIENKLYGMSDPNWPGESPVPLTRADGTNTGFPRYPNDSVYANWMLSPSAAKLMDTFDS
Procedure: Assay A: RET Enzyme Assay
Compounds of formulas I, II, or III are screened for their ability to inhibit wildtype, V804M, and G810S mutant RET kinase using CisBio's HTRF® KinEASE™TK assay technology. N-terminal GST tagged recombinant human RET cytoplasmic domain (aa 658-end) from Eurofins ([…]; Catalog No. 14-570M) or N-terminal GST tagged recombinant human V804M mutant RET cytoplasmic domain (aa 658-end) from Millipore (1.25 nM enzyme; Catalog No. 14-760) or N-Terminal GST-tagged recombinant human G810S (aa-658-end) (1.25 nM Enzyme; produced in insect cells) is incubated with 62.5 nM TK-substrate biotin (CisBio, part of Catalog No. 62TK0PEC) and 1 mM ATP along with test compound (0.4% final DMSO in the assay) in a 1× Cisbio enzymatic buffer consisting of […], 5 mM MgCl2, 0.04% BSA and 0.05% Tween20 in a volume of 10 μL. Compounds are typically prepared in a threefold serial dilution in DMSO and added to the assay to give the appropriate final concentration. After a 40-60 min (40 min for V804M, 60 min for WT and G810S) incubation at 22° C., the reaction is quenched by adding quench solution (10 μL) containing 7.8 nM Streptavidine-XL665 and 0.5×TK-ab-Cryptate in HTRF detection buffer (all from CisBio, part of Cat. No. 62TK0PEC). After a 60-80 min incubation (60 minutes for WT, 80 minutes for V804M and G810S) at 22° C., the extent of reaction is determined using a PHERastar plate reader via HTRF detection at excitation/emission 337/665 nm. Percent of inhibition is calculated with 0% inhibition referring to control conditions containing no compound (0.4% DMSO only) and 100% inhibition represented by conditions containing no enzyme. The % inhibition values are fit to a 4 parameter logistic curve, and the determined IC50 value is defined as the estimated concentration of inhibitor at the inflexion point of the fitted curve.

[2] = molecular target: T2, KIF5B-RET mutant form G810S in HEK293 cells (Homo sapiens, UniProt P07949, G810S); assay: RET cell assay (In-Cell Western, phospho-RET Y1062), G810S; assay type: cell-based; conditions: HEK293, doxycycline-induced KIF5B-RET G810S, 1 hr compound treatment; read-out: EC50, inhibition of intracellular autophosphorylation of RET at tyrosine 1062, G810S cells
T2 construct: expressed in transfected cells; host or cells: HEK293; the other entry of the earlier key: KIF5B (P33176, Kinesin-1 heavy chain)
T2 sequence (P07949 713-1063 G810S limits assumed): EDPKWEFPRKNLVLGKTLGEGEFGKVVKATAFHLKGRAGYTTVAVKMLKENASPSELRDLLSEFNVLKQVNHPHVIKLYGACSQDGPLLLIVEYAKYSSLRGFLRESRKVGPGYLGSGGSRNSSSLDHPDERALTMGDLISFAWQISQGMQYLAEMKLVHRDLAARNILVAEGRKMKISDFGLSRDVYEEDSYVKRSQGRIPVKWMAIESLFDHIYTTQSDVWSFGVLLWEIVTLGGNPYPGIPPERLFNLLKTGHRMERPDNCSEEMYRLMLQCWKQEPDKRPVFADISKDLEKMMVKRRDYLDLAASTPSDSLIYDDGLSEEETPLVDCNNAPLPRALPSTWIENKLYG
Procedure: Compounds of formulas (I), (II), and (III) are screened for their ability to inhibit the intracellular autophosphorylation of RET at tyrosine 1062 as detected by In-Cell Western. HEK293 cells containing a doxycycline-inducible plasmid for inducible expression of KIF5B-RET WT and RET mutant forms V804M and G810S are seeded at 25,000 cells/well into black poly-D-lysine pre-coated 384-well plates (Corning, Catalog No. 356697). Expression of KIF5B-RET is induced with doxycycline at 1 μg/mL and cells are incubated at 37° C. overnight. Compounds are prepared in a threefold serial dilution in DMSO before further diluting 1:100 in media prior to the addition to the cells (0.1% final DMSO concentration). Compound treatment is performed for 1 hr at 37° C. followed by fixation of cells with 4% formaldehyde for 20 min at RT and cell permeabilisation with ice-cold MeOH for 10 min at RT. Cells are incubated with Intercept® blocking buffer (Li—COR, Catalogue No. 927-70010) for 1 hr at RT. Incubation with primary antibodies against human phospho-RET (Y1062) (R&D, Catalogue No. AF5009, 1/250 dilution) and human glyceraldehyde-3-phosphate dehydrogenase (clone 6C5, Merck, Catalog No. MAB374, 1/1000 dilution) are performed overnight at 4° C. Incubation with secondary antibodies IRDye® 800CW goat anti-rabbit IgG (Li—COR, Catalogue No. 926-32211, 1/1000 dilution) and IRDye® 680CW goat anti-mouse IgG (Li—COR, Catalogue No. 926-68070, 1/1000 dilution) are performed for 1 hr at RT. All antibody dilutions are done in Intercept® blocking buffer containing 0.05% Tween20. After washing cells with PBS-T (Cell Signaling technology, Catalogue No. 9809), the images are acquired on a Li—COR Odyssey LCx at 700 and 800 nm. Percent of DMSO control is calculated with 100% signal referring to control conditions containing no compound (0.4% DMSO only) and 0% signal represented by conditions containing control compound. The % of DMSO control values are fit to a 4 parameter logistic curve, and the determined EC50 value is defined as the estimated concentration of inhibitor at the inflexion point of the fitted curve.

## CCC(C)(C)c1cc(NC(=O)C(C)c2ccc(-c3nn(C(C)C)c(N)c3C(N)=O)cc2)no1 (single isomer, unassigned; isomer 2) [Example 52, 5-Amino-1-isopropyl-3-[4-(1-[[5-(2-methylbutan-2-yl)-1,2-oxazol-3-yl]carbamoyl]ethyl)phenyl]pyrazole-4-carboxamide, Isomer 2]
[1]
  IC50: < 100 nM
[2]
  EC50: < 100 nM

## CC(C(=O)Nc1cc(C(C)(C)C(F)(F)F)no1)c1ccc(-c2nn(C(C)C)c(N)c2C(N)=O)cn1 (single isomer, unassigned; isomer 2) [Example 90, 5-Amino-1-isopropyl-3-[6-[1-methyl-2-oxo-2-[[3-(2,2,2-trifluoro-1,1-dimethyl-ethyl)isoxazol-5-yl]amino]ethyl]-3-pyridyl]pyrazole-4-carboxamide, Isomer 2]
[1]
  IC50: < 100 nM
[2]
  EC50: < 100 nM

## CC(C(=O)Nc1cc(C(C)(C)C(C)(F)F)on1)c1ccc(-c2nn(C(C)C)c(N)c2C(N)=O)cc1 (single isomer, unassigned; isomer 2) [Example 76, 5-Amino-3-[4-(1-[[5-(3,3-difluoro-2-methylbutan-2-yl)-1,2-oxazol-3-yl]carbamoyl]ethyl)phenyl]-1-isopropylpyrazole-4-carboxamide, Isomer 2]
[1]
  IC50: < 100 nM
[2]
  EC50: < 100 nM

## CC(C(=O)Nc1cc(-c2ccc(Cl)cc2Cl)no1)c1ccc(-c2nn(C(C)C)c(N)c2C(N)=O)cn1 (single isomer, unassigned; isomer 2) [Example 94, 5-Amino-1-isopropyl-3-[6-[2-[[3-(2,4-dichlorophenyl)isoxazol-5-yl]amino]-1-methyl-2-oxo-ethyl]-3-pyridyl]pyrazole-4-carboxamide, Isomer 2]
[1]
  IC50: < 100 nM
[2]
  EC50: < 100 nM

## CC(C(=O)Nc1cc(C(C)(C)C(F)(F)F)no1)c1ccc(-c2nn(C(C)C)c(N)c2C(N)=O)cc1 (single isomer, unassigned; isomer 1) [Example 17, 5-Amino-1-isopropyl-3-[4-(1-[[3-(1,1,1-trifluoro-2-methylpropan-2-yl)-1,2-oxazol-5-yl]carbamoyl]ethyl)phenyl]pyrazole-4-carboxamide, Isomer 1]
[1]
  IC50: < 100 nM
[2]
  EC50: < 100 nM

## CC(C(=O)Nc1cc(-c2ccc(Cl)cc2Cl)no1)c1ccc(-c2nn(C(C)C)c(N)c2C(N)=O)cc1 (single isomer, unassigned; isomer 1) [Example 45, 5-Amino-3-[4-(1-[[3-(2,4-dichlorophenyl)-1,2-oxazol-5-yl]carbamoyl]ethyl)phenyl]-1-isopropylpyrazole-4-carboxamide, Isomer 1]
[1]
  IC50: < 100 nM
[2]
  EC50: < 100 nM

## CCC(C)(C)c1cc(NC(=O)C(C)c2ccc(-c3nn(C(C)C)c(N)c3C(N)=O)cn2)on1 (single isomer, unassigned; isomer 2) [Example 84, 5-Amino-1-isopropyl-3-[6-[2-[[3-(1,1-dimethylpropyl)isoxazol-5-yl]amino]-1-methyl-2-oxo-ethyl]-3-pyridyl]pyrazole-4-carboxamide, Isomer 2]
[1]
  IC50: < 100 nM
[2]
  EC50: < 100 nM

## CCC(C)(C)c1cc(NC(=O)C(C)c2ccc(-c3nn(C(C)C)c(N)c3C(N)=O)cc2)on1 (single isomer, unassigned; isomer 1) [Example 15, 5-Amino-1-isopropyl-3-[4-(1-[[3-(2-methylbutan-2-yl)-1,2-oxazol-5-yl]carbamoyl]ethyl)phenyl]pyrazole-4-carboxamide, Isomer 1]
[1]
  IC50: < 100 nM
[2]
  EC50: < 100 nM
